Data on five substances can be found in patent US12570709B2, “Self-assembling peptide amphiphiles displaying a transforming growth factor beta 1 (TGF-ß1) mimetic epitope” (Northwestern University, priority 2021, dated 2026).

Bridge positions count the residues as written; N and C are the ends. Ends that are not written are not given here. I, II: the chains in the order shown. * marks the point of attachment. Palmitoyl = CCCCCCCCCCCCCCCC(=O)*

Data set [1] in a line: Transverse-relaxation (T2) NMR spectroscopy of PA assemblies. Format: physicochemical. The following applies: backbone PA assemblies. On the procedure:
NMR spectra were acquired at 600 MHz on a Brucker Neo system with QCI-F cryoprobe. NMR spectra for PAs were recorded at 25° C. using TFA-d, H2O/D2O in 9/1 ratio (D2O contains 0.05 wt. % 3-(trimethylsilyl) propionic-2,2,3,3-d4 acid, sodium salt) as solvents. Chemical shifts are reported in part per million (ppm). The […] was 15 μs and typical spectra required 32 scans.
The spin-spin relaxation rates were measured using the Carr-Purcell-Gill-Meiboom pulse sequence with a delay time of 0.2 ms in a variable loop. The peak intensity data was fit to and exponential in the form:
[formula] where τ is the length of the delay time, R2 is the spin-spin relaxation rate and b are the baseline.^2 Cell Culture

In data set [2] the test system is human chondrocytes encapsulated in PA hydrogels. In words: F-actin ICC and confocal microscopy of chondrocytes encapsulated in PA gels. Format: cell-based. Conditions: three days in vitro, equal concentrations of cells encapsulated. As for the experimental part: (§1) Fixed samples were permeabilized and blocked in a solution of 0.1% (v/v) Triton X-100 and 1% normal horse serum (Invitrogen) for 2 hours at room temperature. Samples were incubated with primary antibodies overnight at 4° C. The following primary antibodies were used: rabbit anti-Sox9 (1:500, Abcam), mouse anti-Aggrecan (1:500, ThermoFisher), mouse anti-Collagen II (1:500, ThermoFisher), and mouse anti-Nuclei (1:500, Sigma-Aldrich). The next day, samples were incubated with AlexaFluor 488 secondary antibody, AlexaFluor 555 secondary antibody, Phalloidin AlexaFluor 488, and/or Phalloidin AlexaFluor 633 (1:1000, Invitrogen) for 2-3 h at room temperature. For 2D cell culture, samples were then incubated with DAPI (1:1000, Invitrogen) for 10 minutes at room temperature. If not already on a glass coverslip, samples were mounted with Immu-Mount (Thermo Scientific) and imaged on a Nikon A1R Spectral microscope. Image analysis was performed using ImageJ software.
Chondrocytes were trypsinized and resuspended in growth media for counting, and then pelleted and resuspended to 6×10^7 cells/mL in growth media. The cell solution was mixed 1:2 v/v with sterile PA solution prepared at 3 wt % in 30 mM NaCl. For gels also encapsulating rhTGF-β1 protein (R&D Systems), soluble protein was added to PA solutions after thermal annealing. 120 μL of PA/cell solution was mixed thoroughly by pipetting gently and then placed into PDL-coated 12-well chamber slides (Ibidi). Sterile gelling solution, comprised of 110 mM NaCl, 3 mM KCl, and 25 mM CaCl2, was pipetted dropwise on top of the PA/cell solution and the gels were incubated for 30 minutes at 37° C. Following incubation, excess gelling solution was removed and 250 μL of growth media was added to each well. The media was removed after 3 days for LDH viability assays as described above. For ICC, after 3 days of in vitro culture, gels were fixed in 4% paraformaldehyde for 30 minutes at room temperature.

A short description of data set [3]: Rheology of PA hydrogels (strain sweep, G′/G″ crossover). Format: physicochemical. Conditions: PA gels, 10 mol % co-assemblies. As for the experimental part: Gels were made using 2 wt % PA solutions prepared as previously described, using 10 mol % co-assemblies of epitope PA with diluent PA. 12-well chamber slides (Ibidi) were coated with 0.01 mg/mL poly-D-lysine (Sigma-Aldrich) solution and incubated overnight at 37° C. The wells were washed three times with water and air-dried for at least 30 minutes. 120 μL of PA solution was pipetted evenly into the well and gelling solution comprised of 110 mM NaCl, 3 mM KCl, and 25 mM CaCl2 was pipetted dropwise on top of the PA solution. The gels were incubated at 37° C. for 30 minutes, and then excess gelling solution was removed.
Measurements were performed on an Anton Paar MCR302 rheometer with a 25 mm parallel-plate fixture. 120 μL of the PA/HA hybrid slurry was placed on the bottom plate and 30 μL of a 50 mM CaCl2/75 mM NaCl gelling solution was placed on the upper fixture. The fixture was lowered to a gap of 0.5 mm for 10 min during which time a 0.1% oscillatory strain was applied with a 10 rad/s angular frequency. The gap height was allowed to vary to keep the normal force at 0 N. Next, a strain sweep was performed at 10 rad/s from 0.1% to 100% strain to measure the strain to break the gel.

The test system of data set [4] is Smad2 phosphorylation (intracellular TGF-β1 signaling) in human chondrocytes. In words: Western blot of phosphorylated Smad2 after 4 h treatment. Format: cell-based. Conditions: for activation of p-Smad2 with addition of pan-TGF-β-neutralizing antibody 1D11: with vs without 1D11. As for the experimental part: (§2) For western blot of 4 h PA treatments, cells were seeded in 6-well plates at a density of 600,000 cells/well and cultured for 24 h. […] Cells were then treated with PA in solution for 4 h in vitro. For western blot of 3-day PA treatments, cells were seeded in 6-well plates at a density of 230,000 cells/well and cultured for 24 h. Cells were then treated with PA in solution for 3 days in vitro.
(§3) Protein was extracted from cells using Halt Protease and Phosphatase Inhibitor Cocktail (Thermo Scientific) and a BCA assay (Thermo Scientific) was performed to determine protein content of each sample. Cell protein was loaded into and separated using a 4-20% SDS-PAGE gel (Bio-Rad). It was then electrotransferred from the gel to a nitrocellulose membrane (Bio-Rad). The membranes were blocked with 10% milk solution (Bio-Rad) for 30 minutes followed by an overnight incubation with primary antibodies at 4° C. The following primary antibodies were used: rabbit anti-pSmad2 (1:1000, Cell Signaling), rabbit anti-Smad2 (1:1000, Cell Signaling), rabbit anti-Sox9 (1:500, Abcam), mouse anti-Aggrecan (1:500, ThermoFisher), rabbit anti-COMP/Cartilage oligomeric matrix protein (1:500, Abcam), mouse anti-Collagen II (1:500, ThermoFisher), and mouse anti-Actin (1:1000, Novus Bio). Membranes were then incubated with their corresponding secondary HRP-conjugated antibodies (1:1000, ThermoFisher). Protein signals were detected using Radiance Bioluminescent ECL substrate (Azure Biosystems). Densitometry analysis, standardized to total receptor content or actin as a control for protein loading, was performed using ImageJ software. For quantification, experimental triplicate samples were analyzed, and two different experiments were conducted.
A general note: Immunoblotting shows a protein as a band on a membrane.

The subject of data set [5] is collagen II, aggrecan and F-actin in human chondrocytes. In words: Immunocytochemistry staining and fluorescence intensity analysis after three days. Format: cell-based. Conditions: three days in vitro. As for the experimental part: For immunocytochemistry (ICC), 12-mm glass coverslips were coated with sterile filtered 0.01 mg/mL poly-D-lysine (Sigma-Aldrich) solution and incubated overnight at 37° C. The coverslips were washed three times with sterile water and air-dried for at least 30 minutes. Cells were seeded on coverslips at a density of approximately 3,000 cells/coverslip and cultured for 24 h. Cells were then treated with PA in solution for 3 days in vitro. Following treatment, cells were fixed in 4% paraformaldehyde for 15 minutes at room temperature.
as §1

The conditions of data set [6]: cited from earlier work.
A short description of data set [7]: Dynamic light scattering of TGF-β1 mimetic peptide. Format: physicochemical. The following applies: peptide alone, 100 mol %, 1 wt %, 25° C. As for the experimental part:
DLS measurements were performed on a Malvern Zetasizer Nano ZSP light scattering spectrometer. The TGF-β1 mimetic peptide alone, without PA, was prepared at 1 wt % as previously described. During the sample measurement, the temperature was kept at 25° C. The sample was equilibrated for 30 seconds before each measurement was taken. The duration of each measurement was 10 seconds, and the measurement angle was 173° backscatter. The attenuator was determined by the instrument automatically, as was the number of accumulations for each run. Each measurement run was repeated 3 times.

In data set [8] the test system is collagen II, COMP, aggrecan and Sox9 in human chondrocytes. As to the kind of experiment: Western blot of ECM proteins after three days treatment. Format: cell-based. Conditions: 10 μM, three days in vitro. As for the experimental part: as §2, §3

Regarding “C16-AAEE (Palmitoyl-AAEE-OH; SMILES CCCCCCCCCCCCCCCC(=O)N[C@@H](C)C(=O)N[C@@H](C)C(=O)N[C@@H](CCC(=O)O)C(=O)N[C@@H](CCC(=O)O)C(=O)O) [Backbone PA-a]”, the “1H spin-spin (T2) relaxation rate of terminal alkyl methyl protons” value in data set [1] was 3.67 ± 0.23 s⁻¹. Further, in data set [2], the “cells within the bulk of the gel” value is on record as “Far fewer cells were visible”. In data set [3], the “G′/G″ crossover % strain” value is given as 7.10 ± 1.49% and the “G′/G″ crossover storage modulus” value is 0.55 ± 0.13 kPa.

On to “rhTGF-β1: native recombinant human TGF-β1 (R&D Systems), positive control”, for which the “activation of p-Smad2 with addition of pan-TGF-β-neutralizing antibody 1D11” value in data set [4] is given as “effectively neutralized”. Also, the aggrecan synthesis result in data set [5] (10 μM, ICC) was “significantly increased aggrecan synthesis at similar levels”. Also, the “chondrocyte phenotype (F-actin staining)” value in data set [5] was “maintained healthy chondrocyte phenotypes and prevented hypertrophy”. Also, the “half-life in its active form in vivo” value in data set [6] was 2 to 3 min.

On to “CESPLKRQC (disulfide 1-9 (inferred)) [TGF-β1 mimetic peptide, reference compound]”, for which the p-Smad2 activation entry in data set [4] (50 μM, 4 h, 10 mol % co-assemblies) is on record as “no activation”. In data set [5] (10 μM, ICC), the “upregulation of collagen II and aggrecan” value is reported as “little upregulation of either protein”. Further, in data set [7], the “hydrodynamic diameter of micelles” value is on record as “approximately 2 nm” and the “size of aggregates of micelles” value was about 200 nm. The “ECM synthesis (collagen II, COMP, aggrecan, Sox9)” value in data set [8] is on record as “low activation”.

Turning to “C16-AEAE (Palmitoyl-AEAE-OH; SMILES CCCCCCCCCCCCCCCC(=O)N[C@@H](C)C(=O)N[C@@H](CCC(=O)O)C(=O)N[C@@H](C)C(=O)N[C@@H](CCC(=O)O)C(=O)O) [Backbone PA-b]”, the “1H spin-spin (T2) relaxation rate of terminal alkyl methyl protons” value in data set [1] turned out to be 20.49 ± 0.58 s⁻¹.

Take “TGF PA-b: backbone PA SEQ ID NO: 8 conjugated to cyclic TGF-β1 mimetic peptide (SEQ ID NO: 1) by a linker; co-assembled with diluent Backbone PA-b (chain Palmitoyl-AEAEK-OH; peptide CESPLKRQC; disulfide II:1-II:9; not fully specified (some residues); also: co-assembled with diluent backbone PA-b)”: in data set [4], the “activation of p-Smad2 with addition of pan-TGF-β-neutralizing antibody 1D11” value is on record as “effectively neutralized”.
